Experimental data: patent publication EP2601945A1 (Thomale, Jürgen, priority 2011, dated 2013)
Where “and” joins values, the source holds several entries; their conditions need not be identical. Equal entries are not always repeated. Entries after “also recorded” stand apart in the source; their conditions may differ.

Legend:
Pt-GG adducts in DNA [1] = assay: In vivo screening for cis-platin uptake inhibitors and DPH co-administration, ICA of Pt-GG adducts; parameters: species or system mice
Method: (§1) The sacrificed animals were immediately dissected. Kidneys and lungs were submerged in embedding medium (Tissue-Tek O.C.T. Compound) and frozen in liquid nitrogen. Cochleae were dissected and fixed by intralabyrinthine perfusion with Carnoy's solution (3 hours; for DNA adduct staining) or with formaldehyde (4 % in PBS; 1 hour; for OCT protein staining). Cochleae were decalcified in EDTA solution (10 % w/v in PBS) for 3 days and then placed in sucrose solutions (5 % in PBS for 12 hours and 15 % in PBS for 5 hours). After that samples were imbedded in Tissue-Tek medium, frozen and cryosections of 10 µm cut.
(§2) Frozen tissue sections of the inner ear or kidneys on ImmunoSelect slides were fixed in methanol at -20°C for at least 2 hours or overnight and then rehydrated for 10 minutes in PBS, at room temperature. To provide better antibody penetration in the tissue structures the samples underwent alkaline permeabilisation of cytoplasmic and nuclear membranes for 5 minutes at 0°C, followed by washing in PBS at room temperature for 5 minutes. The proteolytic cleavage of cytoplasmic and nuclear proteins was performed in two steps. At first, a pre-warmed pepsin solution (60 µg /ml for cell culture or 100 µg/ml for tissue sections in PBS/HCl) was applied onto the tissue sections and incubated for 10 minutes at 37°C in a humidified chamber. The incubation with pepsin was followed by washing in PBS for 10 minutes at room temperature. In a second step tissue sections were incubated with pre-warmed proteinase K solution (40 µg/ml for cell cultures or 50-100 µg /ml for tissue sections in proteinase K buffer) for 10 minutes at 37°C in a humidified chamber. Subsequently the sections were washed in 0.2 % glycine in PBS for 10 minutes at room temperature. Non-specific binding of the antibodies was inhibited by incubation with a blocking solution of 1 % casein in PBS for 30 minutes at room temperature. The samples were then incubated with a monoclonal antibody (R-C18, Liedert et al., 2006) specific for Pt-GG adducts in DNA (0.1 µg/ml in 0.1 % BSA/PBS) over night at 4°C in the humidified chamber. Subsequently, the slides were washed in 0.05 % Tween 20 in PBS for 5 minutes at room temperature and then in PBS for 5 minutes. The incubation with secondary Cy3-labeled rabbit anti-(rat Ig) antibodies, was performed (0.2 µg/ml in 0.1 % BSA/PBS) for 60 minutes at 37°C in the humidified chamber, followed by washing in 0.05 % Tween 20 in PBS for 5 minutes at room temperature and then in PBS for 5 minutes. The nuclear DNA was counterstained with DAPI (1 µg/ml in PBS) for 30 minutes at room temperature. The slides were then washed in PBS. Finally, the samples were embedded with a densification compound "[…]". The quantification of immuno- and DNA-fluorescence was performed by means of a microscope-coupled digital image analysis system ACAS 6.0 Cytometry Analysis System. Adduct levels in the nuclear DNA of individual cells were calculated by normalizing antibody-derived fluorescence signals to the corresponding DNA content of the same nucleus, and were expressed as arbitrary fluorescence units (AFUs). Data were assigned to specific cell types as determined by histochemistry.
The mice were separated into two groups for pretreatment with low or high doses of the test compounds. […] The low dose group received half the dose of the high dose group (50, 50, 30 or 10 mg/kg, respectively). […] Cochleae and kidneys were dissected for immunostaining and ICA analyses of Pt-GG adduct levels in specific cell types (Figure 8). In tissue sections from mice pretreated with quinine or butylscopolamine no inhibition of DNA platination was observed, independent of the dosing, in either of the three target cell types (renal tubulus epithelium cells (Figure 8 A), cochlear marginal cells (Figure 8B) and outer hair cells (Figure 8 C)). […]

[2] = tested on: human cancer cell lines established from tumors (lung, bladder, testis); assay: Co-application of cis-platin and DPH to cancer cell lines: DNA adducts by ICA; format: cell-based; details: cis-platin alone or in combination with DPH
[3] = format: in vivo, mice
Method: Since the protective effect of DPH for the cochlea may be mediated by blocking an ion transporter being relevant for the physiological function of the target cells, an additional experiment was done to verify whether a treatment with DPH alone alters the hearing capability of the mice. For this, five animals measured for their basal auditory sensitivity with the BAER test were treated 24 h later with a single dose of DPH (57 mg/kg), and were re-examined one hour later again by the BAER test.

Pt-GG adducts in DNA [4] = assay: Immunocytological assay (ICA) of Pt-GG adducts in kidney and cochlea cells after cis-platin treatment; format: in vivo, mice
Method: as §1, §2
24 hours later, the inner ears and kidneys were dissected, kidneys were frozen immediately and cochleae were fixed and decalcified. Cryosections (10 µm) prepared from the tissues were placed onto specific adhesion slides. Slides were then immunostained for the visualization of platinum-guanine-guanine (Pt-GG) intrastrand adducts in the nuclei of individual cells by using the adduct-specific monoclonal antibody R-C18 in an immunocytological assay (ICA) (Liedert et al., 2006). The tissue sections were then stained with a secondary Cy3-labeled goat-anti-rat antibody (Cy3), counterstained with DAPI for nuclear DNA, and analyzed in the fluorescence microscope (Figure 1). Serial sections from the same tissues were stained for morphological orientation with hematoxyline and eosin (H&E). […]

Pt-GG adducts in DNA [5] = assay: as above; format: in vivo, mice; details: cis-platin 12.5 mg/kg single dose; measured 2, 16, 48, 72 h
hearing capability = assay: BAER hearing test in XPA-/- and wild type mice after low dose cis-platin; details: cis-platin cumulative dose 3.5 mg/kg within two weeks, NER-deficient XPA-/- mice
[6] = DPH 0 to 57 mg/kg i.p. 30 minutes prior to cis-platin 10 mg/kg (Figure 9)
[7] = DPH 57 mg/kg 30 minutes before cis-platin 12.5 mg/kg, 2, 16, 48, 72 hours
[8] = high dose of 60 mg/kg i.p. 1 h before cis-platin 10 mg/kg, 24 h
[9] = cis-platin plus DPH, repetitive treatment
[10] = cis-platin 10 mg/kg i.p., cochlea, 24 h (Figure 3 B)
[11] = cis-platin 10 mg/kg i.p., kidney
[12] = cis-platin 10 mg/kg i.p., kidney, 24 h (Figure 3 A)

**Q.** Which “adduct accumulation in proximal tubule cells and marginal cells” value (Pt-GG adducts in DNA [1]; [6]) does the source give for `CN(C)CCOC(c1ccccc1)c1ccccc1` [DPH, diphenhydramine] here?
**A.** dose-dependent inhibition

**Q.** And the “adduct levels in distal tubule cells and basal and intermediate cells of the stria vascularis” value (Pt-GG adducts in DNA [1]; [6])?
**A.** No significant alterations

**Q.** What about the “DNA platination in marginal and outer hair cells versus cis-platin alone, all time points” value (Pt-GG adducts in DNA [1]; [7]) of the same compound?
**A.** drastically decreased

**Q.** And the “capability to repair the DNA damage” value (Pt-GG adducts in DNA [1]; [7])?
**A.** no obvious differences

**Q.** What about the “inhibition of the formation of Pt-adducts in outer hair cells and marginal cells” value (Pt-GG adducts in DNA [1]; DPH along with cis-platin (description)) of the same compound?
**A.** about 70%

**Q.** What about the “formation of Pt-adducts in dorsal root ganglion (DRG) neurons” value (Pt-GG adducts in DNA [1]; cis-platin 15 mg/kg with DPH 50 mg/kg, 24 h (Figure 9 C)) of the same compound?
**A.** inhibited; also recorded: significantly reduced

**Q.** What about the “shielding from DNA damage, cochlear marginal cells” value (Pt-GG adducts in DNA [1]; [8]) of the same compound?
**A.** 70%

**Q.** And the “shielding from DNA damage, outer hair cells” value (Pt-GG adducts in DNA [1]; [8])?
**A.** about 50%

**Q.** What about the “shielding from DNA damage, proximal tubule cells” value (Pt-GG adducts in DNA [1]; [8]) of the same compound?
**A.** 75%

**Q.** What about the “adduct levels in other cell types of the inner ear” value (Pt-GG adducts in DNA [1]; repetitive cis-platin 5 mg/kg every second day plus DPH 57 mg/kg) of the same compound?
**A.** remained unchanged

**Q.** And the “adducts in target cells of kidney and inner ear versus cis-platin alone group” value (Pt-GG adducts in DNA [1]; repetitive cis-platin 5 mg/kg every second day plus DPH 57 mg/kg (Figure 12))?
**A.** by far less adducts

**Q.** What about the “effect on the formation of DNA adducts (ICA)” value [2] of the same compound?
**A.** no inhibitory effect

**Q.** And the “side effects of prolonged treatment” value ([3]; DPH alone, up to eight applications)?
**A.** no obvious side effects

**Q.** And the “general health status versus cis-platin alone group” value [3, 9]?
**A.** better

**Q.** And the “weight loss versus cis-platin alone group” value [3, 9]?
**A.** less severe

**Q.** Which “levels of Pt-GG adducts, OHC vs. adjacent cells in the organ of Corti” value (Pt-GG adducts in DNA [4]; cis-platin 10 mg/kg i.p.) does the source give for `N.N.[Cl][Pt][Cl]` [cis-platin, cis-diaminedichloro-platinum(II)] here?
**A.** 11 fold

**Q.** And the “levels of Pt-GG adducts, marginal cells compared to other cell types in the stria vascularis” value (Pt-GG adducts in DNA [4]; cis-platin 10 mg/kg i.p.)?
**A.** 5 fold

**Q.** And the “levels of Pt-GG adducts, adjacent cells in the organ of Corti” value (Pt-GG adducts in DNA [4]; [10])?
**A.** 1.19 AFUs

**Q.** What about the “levels of Pt-GG adducts, other cell types in the stria vascularis” value (Pt-GG adducts in DNA [4]; [10]) of the same compound?
**A.** 2.08 AFUs

**Q.** And the “levels of Pt-GG adducts, OHC (outer hair cells)” value (Pt-GG adducts in DNA [4]; cis-platin 10 mg/kg i.p., cochlea, organ of Corti, 24 h (Figure 3 B))?
**A.** 13.26 AFUs

**Q.** What about the “levels of Pt-GG adducts, marginal cells” value (Pt-GG adducts in DNA [4]; cis-platin 10 mg/kg i.p., cochlea, stria vascularis, 24 h (Figure 3 B)) of the same compound?
**A.** 9,85 AFUs

**Q.** What about the “platination level, distal tubular cells versus glomerulus cells” value (Pt-GG adducts in DNA [4]; [11]) of the same compound?
**A.** twice as high

**Q.** What about the “platination level, proximal tubular cells versus distal tubular cells” value (Pt-GG adducts in DNA [4]; [11]) of the same compound?
**A.** 7 fold

**Q.** What about the “platination level (Pt-GG adducts), distal tubular cells” value (Pt-GG adducts in DNA [4]; [12]) of the same compound?
**A.** 2.61 AFUs

**Q.** What about the “platination level (Pt-GG adducts), glomerulus cells” value (Pt-GG adducts in DNA [4]; [12]) of the same compound?
**A.** 0.97 AFUs

**Q.** And the “platination level (Pt-GG adducts), proximal tubular cells” value (Pt-GG adducts in DNA [4]; [12])?
**A.** 18.97 AFUs

**Q.** And the “adduct levels of non-marginal cells of the stria vascularis, lower than marginal cells” value (Pt-GG adducts in DNA [4]; cis-platin 10 mg/kg single dose, 24 h, turns of the cochlea (Figure 4))?
**A.** 10 fold

**Q.** What about the “time at which Pt-GG levels peaked, OHCs” value (Pt-GG adducts in DNA [5]) of the same compound?
**A.** 16 h

**Q.** And the “time at which Pt-GG levels peaked, marginal cells” value (Pt-GG adducts in DNA [5])?
**A.** 48 h

**Q.** And the “reduction of hearing capability (BAER), XPA-/- mice” value (hearing capability)?
**A.** 45% and ~50%
